Results taken from US9981916B2 (Genentech, Inc., priority 2013, dated 2018).

target: T1, RORc ligand binding domain (Homo sapiens, UniProt P51449); assay: In vitro RORc ligand binding assay (25-[3H]hydroxycholesterol displacement, filter binding); details: 6 nM 25-[3H]hydroxycholesterol, 0.6 ug/mL RORc receptor, 3 h at 25° C.
T1 construct: host or cells: E. coli
T1 sequence (P51449 269-508 limits assumed): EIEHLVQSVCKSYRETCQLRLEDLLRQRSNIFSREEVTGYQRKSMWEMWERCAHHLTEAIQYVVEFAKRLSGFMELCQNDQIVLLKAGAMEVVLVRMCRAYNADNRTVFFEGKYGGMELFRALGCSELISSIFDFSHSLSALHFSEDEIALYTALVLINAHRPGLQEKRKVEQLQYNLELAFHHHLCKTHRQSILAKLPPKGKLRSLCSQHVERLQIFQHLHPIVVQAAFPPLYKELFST
In short: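 Compounds in 5% DMSO, either dose-response or screened at 1 and 10 uM, competed with 6 nM 25-[3H]hydroxycholesterol for 0.6 ug/mL RORc over 3 h at 25° C (HEPES pH 7.4, NaCl, MgCl2, DTT, BSA buffer). Bound tracer was filter-harvested and counted; nonspecific binding came from 1 uM 25-hydroxycholesterol.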

Row | Structure (SMILES) | IC50
1 | CC1(C)[C@@H]2CC[C@@]1(CN1CCNC1=O)c1nnc(-c3ccccc3F)cc12 [Example 34, 1-{[(5S,8R)-3-(2-fluorophenyl)-9,9-dimethyl-6,7-dihydro-5,8-methanocinnolin-8(5H)-yl]methyl}imidazolidin-2-one] | 245 nM
2 | CCN(C[C@@]12CC[C@@H](c3cc(-c4c(F)cccc4F)nnc31)C2(C)C)C(N)=O [Example 159, 1-(((5R,8S)-3-(2,6-difluorophenyl)-9,9-dimethyl-5,6,7,8-tetrahydro-5,8-methanocinnolin-8-yl)methyl)-1-ethylurea] | 26 nM
3 | CCN(C[C@@]12CC[C@@H](c3cc(-c4c(F)cccc4F)nnc31)C2(C)C)C(=O)CS(C)(=O)=O [Example 318, N-(((5R,8S)-3-(2,6-difluorophenyl)-9,9-dimethyl-5,6,7,8-tetrahydro-5,8-methanocinnolin-8-yl)methyl)-N-ethyl-2-(methylsulfonyl)acetamide] | 33 nM
4 | CC1(C)[C@H]2CC[C@]1(C(=O)N1CC(OCc3ccccc3)C1)c1nnc(-c3c(F)cccc3F)cc12 [Example 198, (3-(benzyloxy)azetidin-1-yl)((5R,8R)-3-(2,6-difluorophenyl)-9,9-dimethyl-5,6,7,8-tetrahydro-5,8-methanocinnolin-8-yl)methanone] | 3250 nM
5 | COCCOC[C@]12CC[C@H](c3cc(-c4ccccc4F)nnc31)C2(C)C [Example 26, (5S,8S)-3-(2-fluorophenyl)-8-[(2-methoxyethoxy)methyl]-9,9-dimethyl-5,6,7,8-tetrahydro-5,8-methanocinnoline] | 789 nM
6 | CCN(C[C@@]12CC[C@@H](c3cc(-c4c(F)cccc4F)nnc31)C2(C)C)c1nnc(C(F)(F)F)o1 [Example 303, N-(((5R,8S)-3-(2,6-difluorophenyl)-9,9-dimethyl-5,6,7,8-tetrahydro-5,8-methanocinnolin-8-yl)methyl)-N-ethyl-5-(trifluoromethyl)-1,3,4-oxadiazol-2-amine] | 10 nM
7 | CC1(C)[C@H]2CC[C@]1(C#N)c1nnc(-c3c(F)cccc3F)cc12 [Example 78, (5R,8R)-3-(2,6-difluorophenyl)-9,9-dimethyl-6,7-dihydro-5,8-methanocinnoline-8(5H)-carbonitrile] | 925 nM
8 | CC1(C)[C@H]2CC[C@]1(CN(CCO)C(N)=O)c1nnc(-c3c(F)cccc3F)cc12 [Example 283, 1-(((5R,8S)-3-(2,6-difluorophenyl)-9,9-dimethyl-5,6,7,8-tetrahydro-5,8-methanocinnolin-8-yl)methyl)-1-(2-hydroxyethyl)urea] | 226 nM
9 | COc1cnc([C@@]23CC[C@@H](c4cc(-c5c(F)cccc5F)nnc42)C3(C)C)o1 [Example 195, 2-((5R,8R)-3-(2,6-difluorophenyl)-9,9-dimethyl-5,6,7,8-tetrahydro-5,8-methanocinnolin-8-yl)-5-methoxyoxazole] | 40 nM
10 | CCOC(=O)N(CCC#N)C[C@@]12CC[C@@H](c3cc(-c4c(F)cccc4F)nnc31)C2(C)C [Example 312, ethyl (2-cyanoethyl)(((5R,8S)-3-(2,6-difluorophenyl)-9,9-dimethyl-5,6,7,8-tetrahydro-5,8-methanocinnolin-8-yl)methyl)carbamate] | 45 nM
11 | CC1(C)[C@@H]2CC[C@@]1(C(=O)N1CC(O)C1)c1nnc(-c3c(F)cccc3F)cc12 [Example 86, [(5S,8S)-3-(2,6-difluorophenyl)-9,9-dimethyl-6,7-dihydro-5,8-methanocinnolin-8(5H)-yl](3-hydroxyazetidin-1-yl)methanone] | 97 nM
12 | CC1(C)[C@@H]2CC[C@@]1(C(=O)NCC(F)F)c1nnc(-c3ccccc3F)cc12 [Example 130, (5S,8S)-N-(2,2-difluoroethyl)-3-(2-fluorophenyl)-9,9-dimethyl-5,6,7,8-tetrahydro-5,8-methanocinnoline-8-carboxamide] | 1120 nM
13 | CNC(=O)N(C)C[C@]12CC[C@H](c3cc(-c4ccccc4F)nnc31)C2(C)C [Example 43, 1-{[(5S,8R)-3-(2-fluorophenyl)-9,9-dimethyl-6,7-dihydro-5,8-methanocinnolin-8(5H)-yl]methyl}-1,3-dimethylurea] | 624 nM
14 | Cc1c(-c2ccccc2F)nnc2c1[C@H]1CC[C@]2(C)C1(C)C [Example 33, (5S,8R)-3-(2-fluorophenyl)-4,8,9,9-tetramethyl-5,6,7,8-tetrahydro-5,8-methanocinnoline] | 1220 nM
15 | CC1(C)[C@@H]2CC[C@@]1(c1nnco1)c1nnc(-c3c(F)cccc3F)cc12 [Example 110, (5S,8S)-3-(2,6-difluorophenyl)-9,9-dimethyl-8-(1,3,4-oxadiazol-2-yl)-5,6,7,8-tetrahydro-5,8-methanocinnoline] | 186 nM
16 | C[C@@H]1CN(C[C@@]23CC[C@@H](c4cc(-c5c(F)cccc5F)nnc42)C3(C)C)C(=O)O1 [Example 314, (R)-3-(((5R,8S)-3-(2,6-difluorophenyl)-9,9-dimethyl-5,6,7,8-tetrahydro-5,8-methanocinnolin-8-yl)methyl)-5-methyloxazolidin-2-one] | 454 nM
17 | CC1(C)[C@H]2CC[C@]1(c1cnco1)c1nnc(-c3c(F)cccc3F)cc12 [Example 104, (5R,8R)-3-(2,6-difluorophenyl)-9,9-dimethyl-8-(1,3-oxazol-5-yl)-5,6,7,8-tetrahydro-5,8-methanocinnoline] | 222 nM
18 | Cn1cc(-c2cc3c(nn2)[C@@]2(C)CC[C@@H]3C2(C)C)cn1 [Example 96, (5R,8S)-8,9,9-trimethyl-3-(1-methyl-1H-pyrazol-4-yl)-5,6,7,8-tetrahydro-5,8-methanocinnoline] | 5480 nM
19 | CC1(C)[C@H]2CC[C@]1(C)c1nnc(Oc3c(F)cccc3F)cc12 [Example 99, (5R,8S)-3-(2,6-difluorophenoxy)-8,9,9-trimethyl-5,6,7,8-tetrahydro-5,8-methanocinnoline] | 280 nM
20 | C[C@H]1CCCN1C(=O)[C@]12CC[C@H](c3cc(-c4c(F)cccc4F)nnc31)C2(C)C [Example 234, ((5S,8S)-3-(2,6-difluorophenyl)-9,9-dimethyl-5,6,7,8-tetrahydro-5,8-methanocinnolin-8-yl)((S)-2-methylpyrrolidin-1-yl)methanone] | 238 nM
21 | CC1(C)[C@@H]2CC[C@@]1(C(=O)N1CC(C#N)C1)c1nnc(-c3c(F)cccc3F)cc12 [Example 259, 1-((5S,8S)-3-(2,6-difluorophenyl)-9,9-dimethyl-5,6,7,8-tetrahydro-5,8-methanocinnoline-8-carbonyl)azetidine-3-carbnitrite] | 345 nM
22 | COCC12CCC(c3cc(-c4ccccc4F)nnc31)C21CC1 (stereo not drawn) [Example 40, 3′-(2-fluorophenyl)-8′-(methoxymethyl)-5′,6′,7′,8′-tetrahydro-spiro[cyclopropane-1,9′-[1,2]diaza[5,8]methanocinnoline]] | 350 nM
23 | CN(C)C1CN(C(=O)[C@]23CC[C@H](c4cc(-c5c(F)cccc5F)nnc42)C3(C)C)C1 [Example 79, [(5S,8S)-3-(2,6-difluorophenyl)-9,9-dimethyl-6,7-dihydro-5,8-methanocinnolin-8(5H)-yl][3-(dimethylamino)azetidin-1-yl]methanone] | 1120 nM
24 | Cc1nnc(N(C)[C@@]23CC[C@@H](c4cc(-c5ccccc5F)nnc42)C3(C)C)o1 [Example 230, N-((5R,8R)-3-(2-fluorophenyl)-9,9-dimethyl-5,6,7,8-tetrahydro-5,8-methanocinnolin-8-yl)-N,5-dimethyl-1,3,4-oxadiazol-2-amine] | 1820 nM
25 | CC1(C)[C@@H]2CC[C@@]1(C(=O)N1CCC(C#N)C1)c1nnc(-c3c(F)cccc3F)cc12 (stereo partly drawn) [Example 245, 1-((5S,8S)-3-(2,6-difluorophenyl)-9,9-dimethyl-5,6,7,8-tetrahydro-5,8-methanocinnoline-8-carbonyl)pyrrolidine-3-carbonitrile] | 126 nM
26 | CC1(C)[C@@H]2CC[C@@]1(N1CCCC1=O)c1nnc(-c3c(F)cccc3F)cc12 [Example 253, 1-((5S,8S)-3-(2,6-difluorophenyl)-9,9-dimethyl-5,6,7,8-tetrahydro-5,8-methanocinnolin-8-yl)pyrrolidin-2-one] | 961 nM
27 | COC[C@@H]1CCCN1C(=O)[C@]12CC[C@H](c3cc(-c4c(F)cccc4F)nnc31)C2(C)C [Example 246, ((5S,8S)-3-(2,6-difluorophenyl)-9,9-dimethyl-5,6,7,8-tetrahydro-5,8-methanocinnolin-8-yl)((S)-2-(methoxymethyl)pyrrolidin-1-yl)methanone] | 2840 nM
28 | CC1(C)[C@H]2CC[C@]1(c1cocn1)c1nnc(-c3c(F)cccc3F)cc12 [Example 114, (5R,8S)-3-(2,6-difluorophenyl)-9,9-dimethyl-8-(1,3-oxazol-4-yl)-5,6,7,8-tetrahydro-5,8-methanocinnoline] | 39 nM
29 | CC1(C)[C@@H]2CC[C@@]1(C(=O)N1CC[C@@H](O)C1)c1nnc(-c3c(F)cccc3F)cc12 [Example 238, ((5S,8S)-3-(2,6-difluorophenyl)-9,9-dimethyl-5,6,7,8-tetrahydro-5,8-methanocinnolin-8-yl)((R)-3-hydroxypyrrolidin-1-yl)methanone] | 236 nM
30 | COC(=O)C1CN(C(=O)[C@@]23CC[C@@H](c4cc(-c5c(F)cccc5F)nnc42)C3(C)C)C1 [Example 136, methyl 1-((5R,8R)-3-(2,6-difluorophenyl)-9,9-dimethyl-5,6,7,8-tetrahydro-5,8-methanocinnoline-8-carbonyl)azetidine-3-carboxylate] | 524 nM
